Results reported in PMC6685790 (Nature structural & molecular biology, 2008).

Legend:
Format in all cases: cell-based
GlyR α1^D114G = GlyR α1^D114G (Homo sapiens, UniProt P23415, D142G); assay: Whole-cell recording of substituted GlyR in HEK cells; conditions: α1^D114G vs WT
GlyR α1 WT = biological target: T1, GlyR α1 WT (Homo sapiens, UniProt P23415); assay: Cell-attached single-channel recording of wild-type GlyR α1 in HEK 293 cells
T1 sequence (P23415 29-457): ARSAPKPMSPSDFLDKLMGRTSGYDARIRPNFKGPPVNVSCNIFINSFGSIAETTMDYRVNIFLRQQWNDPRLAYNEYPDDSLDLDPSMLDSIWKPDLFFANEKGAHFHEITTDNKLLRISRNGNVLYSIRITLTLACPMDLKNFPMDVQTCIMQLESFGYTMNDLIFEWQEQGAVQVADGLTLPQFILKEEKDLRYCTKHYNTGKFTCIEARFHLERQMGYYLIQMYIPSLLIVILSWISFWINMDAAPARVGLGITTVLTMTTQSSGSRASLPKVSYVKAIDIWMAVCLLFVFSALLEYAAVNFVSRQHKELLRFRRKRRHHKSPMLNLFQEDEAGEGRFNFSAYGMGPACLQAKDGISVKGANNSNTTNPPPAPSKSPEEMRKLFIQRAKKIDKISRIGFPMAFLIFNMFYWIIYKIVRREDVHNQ

GlyR α1^F100Y = GlyR α1^F100Y (Homo sapiens, UniProt P23415, F128Y); assay: Whole-cell recording of substituted GlyR in HEK cells; conditions: same cell
GlyR α1^F100Y, sequence (P23415 29-457 F128Y): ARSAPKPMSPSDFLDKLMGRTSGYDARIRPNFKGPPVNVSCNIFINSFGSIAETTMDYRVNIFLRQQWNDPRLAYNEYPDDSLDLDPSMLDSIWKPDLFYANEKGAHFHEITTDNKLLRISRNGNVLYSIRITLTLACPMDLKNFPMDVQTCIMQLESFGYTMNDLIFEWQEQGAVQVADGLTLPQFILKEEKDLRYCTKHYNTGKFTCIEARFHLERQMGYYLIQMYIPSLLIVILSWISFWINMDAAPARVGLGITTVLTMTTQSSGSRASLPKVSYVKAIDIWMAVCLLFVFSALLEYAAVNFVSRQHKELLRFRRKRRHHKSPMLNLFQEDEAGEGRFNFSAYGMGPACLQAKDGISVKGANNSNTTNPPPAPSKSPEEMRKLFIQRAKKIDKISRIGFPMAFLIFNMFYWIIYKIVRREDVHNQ

GlyR α1^D114G, sequence (P23415 29-457 D142G): as the sequence (P23415 29-457 F128Y) above, with Y100F, D114G counted along it

SMILES: NCC(=O)O [Glycine, glycine]
- Increase in glycine sensitivity compared to WT (GlyR α1^D114G): 3 fold
- Burst durations Area, component 1 (GlyR α1 WT; α1 WT +30 μM Gly): 28 ± 7%
- Burst durations Area, component 2 (GlyR α1 WT; α1 WT +30 μM Gly): 22 ± 4%
- Burst durations Area, component 3 (GlyR α1 WT; α1 WT +30 μM Gly): 35 ± 5%
- Burst durations Area, component 4 (GlyR α1 WT; α1 WT +30 μM Gly): 19 ± 7%
- Burst durations τB, component 1 (GlyR α1 WT; α1 WT +30 μM Gly): 0.3 ± 0.06 ms
- Burst durations τB, component 2 (GlyR α1 WT; α1 WT +30 μM Gly): 1.4 ± 0.6 ms
- Burst durations τB, component 3 (GlyR α1 WT; α1 WT +30 μM Gly): 6.9 ± 2.2 ms
- Burst durations τB, component 4 (GlyR α1 WT; α1 WT +30 μM Gly): 63.4 ± 14.8 ms
- Closed times Area, component 1 (GlyR α1 WT; α1 WT +30 μM Gly): 44 ± 16%
- Closed times Area, component 2 (GlyR α1 WT; α1 WT +30 μM Gly): 35 ± 15%
- Closed times Area, component 3 (GlyR α1 WT; α1 WT +30 μM Gly): 8 ± 1%
- Closed times Area, component 4 (GlyR α1 WT; α1 WT +30 μM Gly): 10 ± 2%
- Closed times Area, component 5 (GlyR α1 WT; α1 WT +30 μM Gly): 4 ± 1%
- Closed times τC, component 1 (GlyR α1 WT; α1 WT +30 μM Gly): 0.22 ± 0.03 ms
- Closed times τC, component 2 (GlyR α1 WT; α1 WT +30 μM Gly): 0.90 ± 0.24 ms
- Closed times τC, component 3 (GlyR α1 WT; α1 WT +30 μM Gly): 4.3 ± 1.6 ms
- Closed times τC, component 4 (GlyR α1 WT; α1 WT +30 μM Gly): 109 ± 6.2 ms
- Closed times τC, component 5 (GlyR α1 WT; α1 WT +30 μM Gly): 2200 ± 1000 ms
- Open times Area, component 1 (GlyR α1 WT; α1 WT +30 μM Gly): 36 ± 11%
- Open times Area, component 2 (GlyR α1 WT; α1 WT +30 μM Gly): 39 ± 3%
- Open times Area, component 3 (GlyR α1 WT; α1 WT +30 μM Gly): 26 ± 10%
- Open times τO, component 2 (GlyR α1 WT; α1 WT +30 μM Gly): 1.5 ± 0.2 ms
- Open times τO, component 3 (GlyR α1 WT; α1 WT +30 μM Gly): 8.9 ± 2.1 ms
- Open times τO, component 1 (GlyR α1 WT; α1 WT +30 μM Gly, +60 mV pipette potential): 0.28 ± 0.029 ms
- Estimated single channel conductance (GlyR α1 WT; α1 WT activated by glycine): ~ 60 pS
- PO (open probability within clusters/bursts) (GlyR α1 WT; α1 WT activated by glycine): 0.9 ± 0.03
- Single channel Amplitude (GlyR α1 WT; α1 WT activated by glycine, +60 mV pipette potential): 4 – 5 pA
- Single channel Amplitude (GlyR α1 WT; α1 WT activated by glycine, +60 mV pipette potential, listed as Gly): 4.5 ± 0.7 pA

SMILES: [Zn+2] [Zn^2+]
- Maximal Zn^2+ (1 mM)-activated current normalised to glycine Imax (10 mM) (GlyR α1^F100Y): < 2 % Gly Imax
